Assay [1] addresses Biotinylated KRAS G12C protein (Homo sapiens (Human), UniProt P01116, C118S/C51S/C80L/G12C). Kind of assay: SOS-catalyzed nucleotide exchange assay (TR-FRET). The assay is classed as biochemical. Conditions: in vitro apparent potency; preincubation time of 60 minutes prior to addition of SOS. As to the method: The SOS-catalyzed nucleotide exchange assay utilizes a preformed complex of recombinant biotinylated KRAS protein containing G12C/C51S/C80L/C118S mutations (183 amino acids; biotin on K10; leader sequence which is an AviTag; referred to as SEQ ID NO: 1 or “Biotinylated KRAS G12C protein” hereafter), Bodipy-GDP, and Terbium-streptavidin. Compounds are added to this complex and then after incubation for 60 minutes, the mixture is treated with recombinant SOS protein and unlabeled GTP. Small molecule inhibitors stabilize the Bodipy-GDP complex whereas the untreated protein rapidly exchanges Bodipy-GDP for unlabeled GTP resulting in reduced TR-FRET signal.
Biotinylated KRAS G12C protein (SEQ ID NO: 1) is diluted to 2 μM in an EDTA buffer (20 mM HEPES, 150 mM sodium chloride, 10 mM EDTA, and 0.01% Tween) and incubated at room temperature for one hour. This mixture is then further diluted to 90 nM in an assay buffer (20 mM HEPES, 150 mM sodium chloride, 10 mM magnesium chloride, and 0.005% Tween) containing 15 nM of Terbium-Streptavidin (Invitrogen, catalog #PV3577) and 900 nM of Bodipy-GDP and incubated at room temperature for six hours. This solution is referred to as Biotinylated KRAS G12C mixture.
Each test compound (10 mM stock in DMSO) is diluted in DMSO to make a 10-point, 3-fold dilution series in a 384-well low dead volume microplate (Labcyte, catalog #LP-0200). Once titrations are made, 10 nL of the diluted compounds is acoustically dispensed into a 384-well plate (Corning, catalog #3820) using an Echo 550 (Labcyte).
Each well of the plate receives 3 μL Biotinylated KRAS G12C mixture that had been incubating for six hours and 3 μL of assay buffer using a BioRAPTR (Beckman Coulter) and is incubated at room temperature for 60 minutes. Each well then receives 3 μL of 240 nM recombinant human SOS protein and 9 mM GTP (Sigma, G8877) in assay buffer and is incubated at room temperature for 60 minutes.
The time-resolved fluorescence resonance energy transfer signal of the plate is measured on an Envision (PerkinElmer) plate reader: Excitation filter=340 nm; emission1=495 nm; emission2=520 nm; dichroic mirror=D400/D505; delay time=100 μs. The signal of each well is determined as the ratio of the emission at 520 nm to that at 495 nm. Percent effect of each well is determined after normalization to control wells containing DMSO (no effect) or a saturating concentration of inhibitor (max effect). The apparent effect as a function of compound concentration is fit to a four parameter logistic equation.

A further assay concerns phospho-ERK. The assay is described as follows: Cellular phospho-ERK assay. Format: cell-based. To be noted: NCI-H358 cells, 2 hour incubation, ratio of p-Erk vs total Erk, read-out: IC50 (nM) pERK (Cell). As to the method: NCI-H358 cells (ATCC® CRL-5807™) were cultured in T150 flask in growth medium (RPMI medium 1640-GlutaMAX™-I (ThermoFisher Scientific 61870) containing 10% fetal bovine serum (ThermoFisher Scientific 10091148)). The cells were harvested in growth medium after TrypLE (ThermoFisher scientific 12604021) digestion and were seeded in a 384-well collagen coated cell culture plate (Corning 356702) at a density of 15,000 cells/well, and incubated at 37° C., 5% CO2 overnight. The compound dose-response titrations were prepared and appropriate amounts of compounds were dispensed in a 384-well intermediate plate using an Echo 550 liquid handler. RPMI medium 1640-GlutaMAX™-I were added to the intermediate plate and transferred to 384-well cell culture plate, which was incubated at 37° C., 5% CO2 for 2 hours. After removal of medium from the plate, cells were lysed in lysis buffer from Alpha SureFire® Ultra™ Multiplex p-Erk and total Erk assay kit (PerkinElmer MPSU-PTERK) containing Halt™ Protease and Phosphotase inhibitor cocktail (ThermoFisher Scientific 78446) at room temperature with constant shaking at 300 rpm for 30 minutes. The cell lysates were then transferred to OptiPlate-384 plate (PerkinElmer 6005620) and the phosphorylation of Erk and total Erk levels were detected by Alpha SureFire Ultra Multiplex p-Erk kit (PerkinElmer MPSU-PTERK) following the manufacturer's protocol. Assay plates were read on an EnVision Multimode Plate Reader (PerkinElmer), and the ratio of p-Erk vs total Erk in each well was used as the final readout. Dose response curves were analyzed using a 4-parameter logistic model to calculate IC50 values using spotfire software.

Where two headings read alike, the source gives them in different places.

Take `C=CC(=O)N1C[C@H](C)N(c2nc(=O)n3c4nc(c(F)cc24)-c2cc(F)cc4cnn(c24)CCCCc2ccnc(C(C)C)c2-3)C[C@H]1C` [Example 108, 2-[(2S,5R)-2,5-dimethyl-4-(prop-2-enoyl)piperazin-1-yl]-18,22-difluoro-6-(propan-2-yl)-10,11,12,13-tetrahydro-4H-1,20-(ethanediylidene)pyrido [4′,3′:12,13]pyrimido[1′,6′:1,2][1,3,7] triazacyclotridecino[5,6,7-hi]indazol-4-one]: the IC50 in assay [1] is 20 nM; with phospho-ERK (Homo sapiens, NCI-H358, 2 h) it was 68 nM.

`C=CC(=O)N1CCN(c2nc(=O)n3c4nc(c(F)cc24)-c2c(F)cccc2OCCCc2ccnc(C(C)C)c2-3)[C@@H](C)C1` (single isomer, unassigned) [Example 10b]: the IC50 in assay [1] worked out at 2590 nM; in the assay with phospho-ERK, 4380 nM.

As to `C=CC(=O)N1CCN(c2nc(=O)n3c4nc(c(F)cc24)-c2c(F)cccc2OCCCCc2cnc(C(C)C)c-3c2)[C@@H](C)C1` (single isomer, unassigned) [Example 16a], the figures for the IC50 (in assay [1]; in the assay with phospho-ERK) were 9.8 nM and 79 nM, respectively.

`C=CC(=O)N1CCN(c2nc(=O)n3c4nc(c(F)cc24)-c2c(F)ccc(F)c2OCCCCc2ccnc(C(C)C)c2-3)[C@@H](C)C1` [Example 79, 15,18,21-trifluoro-2-[(2S)-2-methyl-4-(prop-2-enoyl)piperazin-1-yl]-6-(propan-2-yl)-10,11,12,13-tetrahydro-4H-1,19-(ethanediylidene)pyrido[4,3-f]pyrimido[1,6-h][1,8,10]benzoxadiazacyclotridecin-4-one]: the IC50 in assay [1] is 2.6 nM; with phospho-ERK (Homo sapiens, NCI-H358, 2 h), 7 nM.

Consider `C=CC(=O)N1C[C@H](C)N(c2nc(=O)n3c4nc(c(F)cc24)-c2cccc(C(F)(F)F)c2OCCOc2ccnc(C(C)C)c2-3)C[C@H]1C` [Example 116, 2-[(2S,5R)-2,5-dimethyl-4-(prop-2-enoyl)piperazin-1-yl]-20-fluoro-6-(propan-2-yl)-14-(trifluoromethyl)-11,12-dihydro-4H-1,18-ethenopyrido[4,3-e]pyrimido[1,6-g][1,4,7,9]benzodioxadiazacyclododecin-4-one], for which the values for the IC50 (in assay [1]; in the assay on phospho-ERK) were 1100 nM and 2730 nM, respectively.

As for `C=CC(=O)N1C[C@H](C)N(c2nc(=O)n3c4nc(c(Cl)cc24)-c2c(F)cccc2OCCc2ccnc(C(C)C)c2-3)C[C@H]1C` (atropisomer, axis not shown) [Example 119, 19-chloro-2-[(2S,5R)-2,5-dimethyl-4-(prop-2-enoyl)piperazin-1-yl]-16-fluoro-6-(propan-2-yl)-10,11-dihydro-4H-1,17-ethenopyrido[4,3-d]pyrimido[1,6-f][1,6,8]benzoxadiazacycloundecin-4-one], the IC50 stood at 2.6 nM in assay [1] and 5.1 nM in the assay on phospho-ERK.

In the case of `C=CC(=O)N1C[C@H](C)N(c2nc(=O)n3c4nc(c(F)cc24)-c2c(ccc(F)c2F)OCCC(C)c2ccnc(C(C)C)c2-3)C[C@H]1C` (single isomer, unassigned) [Example 91], the IC50 in assay [1] was 113 nM; in the assay on phospho-ERK (Homo sapiens, NCI-H358, 2 h) it was 410 nM.

Take `C=CC(=O)N1C[C@H](C)N(c2nc(=O)n3c4nc(c(F)cc24)-c2c(cccc2C(F)(F)F)OCCOc2ccnc(C(C)C)c2-3)C[C@H]1C` [Example 73, 2-[(2S,5R)-2,5-dimethyl-4-(prop-2-enoyl)piperazin-1-yl]-20-fluoro-6-(propan-2-yl)-17-(trifluoromethyl)-11,12-dihydro-4H-1,18-(ethanediylidene)pyrido[4,3-e]pyrimido[1,6-g][1,4,7,9]benzodioxadiazacyclododecin-4-one]: the 50% inhibitory concentration (IC50) in assay [1] was 6.5 nM; in the assay on phospho-ERK it was 13 nM.

For the compound `C=CC(=O)N1CCN(c2nc(=O)n3c4nc(c(F)cc24)-c2c(F)cccc2CCOCCc2ccnc(C(C)C)c2-3)[C@H](C)C1` [Example 17b, 18,21-difluoro-2-[(2S)-2-methyl-4-(prop-2-enoyl)piperazin-1-yl]-6-(propan-2-yl)-10,11,13,14-tetrahydro-4H-1,19-ethenopyrido[3,4-e]pyrimido[6,1-c][9,2,4]benzoxadiazacyclotridecin-4-one], the IC50 in assay [1] came out at 370 nM; in the assay with phospho-ERK it was 1180 nM.

Turning to `C=CC(=O)N1CCN(c2nc(=O)n3c4nc(c(F)cc24)-c2c(F)cccc2C(=O)NCCCc2ccnc(C(C)C)c2-3)[C@H](C)C1` [Example 19b, 18,21-difluoro-2-[(2S)-2-methyl-4-(prop-2-enoyl)piperazin-1-yl]-6-(propan-2-yl)-10,11,12,13-tetrahydro-1,19-ethenopyrido[3,4-e]pyrimido[6,1-c][2,4,10]benzotriazacyclotridecine-4,14-dione], the figures for the IC50 (in assay [1]; in the assay on phospho-ERK) were 4520 nM and over 30000 nM, respectively.

For `C=CC(=O)N1CCN(c2nc(=O)n3c4nc(c(F)cc24)-c2c(F)cccc2OCCCc2ccnc(C(C)C)c2-3)C(C(F)F)C1` (centres unmarked) [Example 99, 2-[2-(difluoromethyl)-4-(prop-2-enoyl)piperazin-1-yl]-17,20-difluoro-6-(propan-2-yl)-11,12-dihydro-4H,10H-1,18-ethenopyrido[4,3-e]pyrimido[1,6-g][1,7,9]benzoxadiazacyclododecin-4-one], the half-inhibitory concentration (IC50) in assay [1] came to 12 nM; in the assay with phospho-ERK (Homo sapiens, NCI-H358, 2 h) it was 22 nM.

Turning to `C=CC(=O)N1C[C@H](C)N(c2nc(=O)n3c4nc(c(F)cc24)-c2c(F)cccc2OCC(F)(F)COc2ccnc(C(C)C)c2-3)C[C@H]1C` (single isomer, unassigned) [Example 13b], the figures for the IC50 (in assay [1]; with phospho-ERK) were 8530 nM and 22100 nM, respectively.

For “17,20-difluoro-2-[(2S)-2-methyl-4-(prop-2-enoyl)piperazin-1-yl]-6-(propan-2-yl)-10,11,12,13-tetrahydro-4H-1,18-ethenopyrido[4,3-e]pyrimido[1,6-g][1,7,9]benzotriazacyclododecin-4-one [Example 112]”, the IC50 in assay [1] is 23 nM; in the assay on phospho-ERK it was 26 nM.

With `C=CC(=O)N1CCN(c2nc(=O)n3c4nc(c(F)cc24)-c2cccc4cnn(c24)CCCc2ccnc(C(C)C)c2-3)[C@@H](C)C1` (single isomer, unassigned) [Example 117], the IC50 in assay [1] is 17 nM; in the assay on phospho-ERK, 44 nM.

Turning to `C=CC(=O)N1CCN(c2nc(=O)n3c4nc(c(Cl)cc24)-c2c(F)cccc2OCCc2ccccc2-3)[C@@H](C)C1` [Example 9, 19-chloro-16-fluoro-2-[(2S)-2-methyl-4-(prop-2-enoyl)piperazin-1-yl]-10,11-dihydro-4H-1,17-ethenodibenzo[b,h]pyrimido[6,1-f][1,5,7]oxadiazacycloundecin-4-one], the figures for the IC50 (in assay [1]; in the assay on phospho-ERK) were 1410 nM and 3830 nM, respectively.

On to `C=CC(=O)N1CCN(c2nc(=O)n3c4nc(c(F)cc24)-c2c(F)cccc2CC[C@@H](O)Cc2ccnc(C(C)C)c2-3)[C@@H](C)C1` [Example 118-2, 17,20-difluoro-11-hydroxy-2-[(2S)-2-methyl-4-(prop-2-enoyl)piperazin-1-yl]-6-(propan-2-yl)-10,11,12,13-tetrahydro-4H-1,18-ethenopyrido[3,4-e]pyrimido[6,1-c][2,4]benzodiazacyclododecin-4-one], for which the IC50 was 54 nM in assay [1] and 1220 nM in the assay with phospho-ERK.

These data come from patent US20240043448A1, “Small Molecule Inhibitors of KRAS G12C Mutant” (Merck Sharp & Dohme LLC, priority 2019, published 2024).
